The values that follow come from patent US11395816B2, “Corroles for treating human cytomegalovirus infections” (UNIVERSITE DE BOURGOGNE, priority 2017, dated 2022).

Structures are written as SMILES. Like-named read-outs stand apart in the source and are kept apart here.

The nature of data set [1]: Toxicity assessment (cytotoxicity) on ARPE-19 cells. To be noted: human; ARPE-19 cells, 6 days of treatment, 0.1-50 μM tested. It counts as cell-based, human. The procedure:
(§1) hCMV infection was carried out on ARPE-19 cells seeded in 96 wells plate, in duplicate at one or two MOI (multiplicity of infection) and 7 concentrations of FNO2Cor, TPFCor, TpNO2Cor. • D0: MRC5/ARPE-19 cells seeded at 6 k per well in Corning Glass Bottom 96 well plates in 200 μL of DMEM without phenol red. • D1: cells were treated with FNO2Cor, TpNO2Cor, TPFCor (from 50 to 0.1 μM by two fold dilutions) in duplicate for the toxicity study. • D3: ARPE-19 cells were treated with Ganciclovir, FNO2Cor, TpNO2Cor, TPFCor (from 5 to 0.07 μM or from 10 to 0.15 μM by two fold dilutions) and were infected at different MOI in duplicate: MOI 10 or 2 for ARPE-19 cells. • D7: ARPE-19 cells at MOI 10 4 d post-infection were fixed with Formalin 10 min at room temperature. Cells were washed with 200 μL PBS and 100 μL PBS/Hoechst® 33342 ( 1/1000) per well. 96 well plates were kept at 4° C. in the dark until data acquisition Image acquisition and analysis for high content quantification was performed on a Thermo Cellomics Arrayscan™ VTI microscope using a modified compartmental analysis algorithm. • D13: ARPE19 cells at MOI 2 10 days post-infection were fixed and image acquisition and analysis were performed as previously described.
(§2) The toxicity of compounds FNO2Cor or TPFCor on ARPE-19 cells was evaluated after 6 days of treatment. 10 concentrations (50, 25, 12.5, 6.25, 3.1, 1.5, 0.75, 0.5, 0.25, 0.1 μM) of FNO2Cor and TPFCor were studied. The compound TpNO2Cor was used as positive control. Cell culture without treatment was used as negative control.
(§3) Cytotoxicity of compounds FNO2Cor, TPFCor and TpNO2Cor were assessed at different concentrations on ARPE-19 cells according to the method described on section 1.3. TpNO2Cor worked as positive reference.

Data set [2] relates to ARPE-19 cells. The description is as above. It counts as cell-based, human. The note with it: for cytotoxicity (in words): ARPE-19 human retinal pigmented epithelium cells, FIG. 1 and Table I. As for the experimental part: as §1, §2, §3
Data set [3] has as its system hCMV. In words: hCMV infection assay in ARPE-19 cells (infection level and DNA replication by high content microscopy). The class given is cell-based, human cytomegalovirus. As for the experimental part:
ARPE-19 human retinal pigmented epithelium cells were used for hCMV infection assay.
Cells were grown in DMEM without phenol red (Sigma-Aldrich) 10% SVF, Pen-strep, 1× sodium pyruvate, 1× Glutamax.
as §1
On 4 d and 10 d post-infection (2 post-infection times), data acquisition per virus and cell line was done by high content microscopy to calculate infection level and DNA replication according to compound concentration.
Compounds FNO2Cor, TPFCor, TpNO2Cor and anti-hCMV drug Ganciclovir were assessed at 8 different concentrations in ARPE-19 cell culture on 4 days post-infection (FIGS. 2A, 2B) or on 10 days post-infection (FIGS. 3A, 3B) to evaluate their activity for inhibiting hCMV infection and their capacity for inhibiting hCMV replication in ARPE-19 cells.

The conditions of data set [4]: already known, Gros et al., 2015; cited from earlier work.
Setting [5] is: Human betaherpesvirus 5, ARPE-19, 96 h, read-out: IC50 ARPE (infection inhibition).
Where [6] appears, read: Human betaherpesvirus 5, ARPE-19, 96 h, read-out: IC50 ARPE (replication inhibition).
The mark [7] stands for this setting: Human betaherpesvirus 5, ARPE-19, 240 h, read-out: IC50 ARPE (infection inhibition).
Where [8] appears, read: Human betaherpesvirus 5, ARPE-19, 240 h, read-out: IC50 ARPE (replication inhibition).
Where [9] appears, read: Table V, head prints 4 d PI, text says 10 d PI.

The CC50 is the concentration at which the toxic effect on the cells reaches its halfway point. Higher therefore signals lower toxicity to the cells. Broadly, the IC50 is the concentration that gives 50% inhibition. `O=[N+]([O-])c1ccc(F)c(-c2c3nc(c4ccc([nH]4)c(-c4cc([N+](=O)[O-])ccc4F)c4ccc([nH]4)c(-c4cc([N+](=O)[O-])ccc4F)c4ccc2[nH]4)C=C3)c1` [FNO2Cor, 5,10,15-Tris(2-fluoro-5-nitrophenyl)corrole] came in with a CC50 at 6 days in data set [1] of 50 µM. In addition, in data set [2], the “cytotoxicity (in words)” value is listed as “safe”. Further, the “Selectivity index (infection inhibition)” value in data set [3] (4 d PI, Table III) was 21.05; in data set [3] (setting [9]), 39.94. Also, the “Selectivity index (replication inhibition)” value in data set [3] (4 d PI, Table III) was 8.45; in data set [3] (setting [9]) it was 4.24. The half-inhibitory concentration (IC50) in data set [3] (setting [5]) worked out at 2.38 µM; in data set [3] (setting [6]) it was 5.92 µM; in data set [3] (setting [7]), 1.25 µM; in data set [3] (setting [8]) it was 11.8 µM.

`Fc1c(F)c(F)c(-c2c3nc(c4ccc([nH]4)c(-c4c(F)c(F)c(F)c(F)c4F)c4ccc([nH]4)c(-c4c(F)c(F)c(F)c(F)c4F)c4ccc2[nH]4)C=C3)c(F)c1F` [TPFCor, 5,10,15-Tris(pentafluorophenyl)corrole] showed a CC50 at 6 days in data set [1] of 26.1 µM. In data set [2], the “cytotoxicity (in words)” value is reported as “safe”. In addition, the “Selectivity index (infection inhibition)” value was 7.38 in data set [3] (4 d PI, Table III) and 27.04 in data set [3] (setting [9]). For the same molecule, the “Selectivity index (replication inhibition)” value was found to be 16.28 in data set [3] (4 d PI, Table III) and 2.12 in data set [3] (setting [9]). The IC50 in data set [3] (setting [5]) worked out at 3.53 µM; in data set [3] (setting [6]), 1.6 µM; in data set [3] (setting [7]) it was 0.96 µM; in data set [3] (setting [8]) it was 12.3 µM.

In data set [2], `O=[N+]([O-])c1ccc(-c2c3nc(c4ccc([nH]4)c(-c4ccc([N+](=O)[O-])cc4)c4ccc([nH]4)c(-c4ccc([N+](=O)[O-])cc4)c4ccc2[nH]4)C=C3)cc1` [TpNO2Cor, 5,10,15-Tris(4-nitrophenyl)corrole, reference compound] returned a CC50 of 25 µM. Besides, the “cytotoxicity (in words)” value in data set [4] was “not cytotoxic”. In addition, the IC50 in data set [3] (4 d PI, MOI 10, ARPE-19 cells, read-out: IC50 ARPE (infection inhibition)) was 3.98 µM; in data set [3] (4 d PI, MOI 10, ARPE-19 cells, read-out: IC50 ARPE (replication inhibition)) it was 8.34 µM; in data set [3] (10 d PI, MOI 2, ARPE-19 cells, read-out: IC50 ARPE (infection inhibition)) it was 1.79 µM.
